According to ChEMBL document CHEMBL1201862, “PubChem BioAssay data set” (2004):
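Exposure lasted 48 hours, with cells grown in 96-well plates and compounds tested at five concentrations. GI50: concentration for 50% inhibition of growth.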 The source made the active and inactive calls. No stated cut-off is given here; in the data, active = GI50 up to about 1.1 µM and inactive = higher.

Key:
Experiment in all cases: growth of human tumour cells (NCI), 48 h
[1] = system: 786-0
[2] = system: ACHN
[3] = system: BT-549
[4] = system: COLO 205
[5] = system: EKVX
[6] = system: HCC 2998
[7] = system: LOX IMVI
[8] = system: M14
[9] = system: MCF7
[10] = system: MDA-MB-231
[11] = system: MDA-MB-435
[12] = system: NCI-H522
[13] = system: OVCAR-3
[14] = system: PC-3
[15] = system: SF-539
[16] = system: SK-MEL-28
[17] = system: SN12C
[18] = system: SNB-19
[19] = system: SR
[20] = system: UACC-62

Structure (SMILES) | GI50 [1] | GI50 [2] | GI50 [3] | GI50 [4] | GI50 [5] | GI50 [6] | GI50 [7] | GI50 [8] | GI50 [9] | GI50 [10] | GI50 [11] | GI50 [12] | GI50 [13] | GI50 [14] | GI50 [15] | GI50 [16] | GI50 [17] | GI50 [18] | GI50 [19] | GI50 [20]
S=C(Nc1ccc(Cl)cc1)SC1CCCCC1 | 36.6 µM (inactive) | 17.5 µM (inactive) | 29 µM (inactive) | 30.5 µM (inactive) | 20.8 µM (inactive) | 19.2 µM (inactive) | 16.4 µM (inactive) | 19.7 µM (inactive) | 19 µM (inactive) | 29.4 µM (inactive) | 29.9 µM (inactive) | 19.7 µM (inactive) | 21.4 µM (inactive) | 35.7 µM (inactive) | 23.1 µM (inactive) | 17.3 µM (inactive) | 19.2 µM (inactive) | 20.8 µM (inactive) | 32.6 µM (inactive) | 14 µM (inactive)
C=C1C(=O)O[C@H]2[C@H]3O[C@@H](C[C@@H]12)[C@@]1(C)CC[C@H](O1)C(C)=CCC[C@H]3C | 1.31 µM (inactive) | 1.55 µM (inactive) | 0.581 µM (active) | 1.81 µM (inactive) | 1.52 µM (inactive) | 1.75 µM (inactive) | 1.52 µM (inactive) | 1.65 µM (inactive) | 1.43 µM (inactive) | 1.62 µM (inactive) | 1.46 µM (inactive) | 1.77 µM (inactive) | 1.37 µM (inactive) | 1.49 µM (inactive) | 1.55 µM (inactive) | 1.82 µM (inactive) | 1.65 µM (inactive) | 6.35 µM (inactive) | 0.065 µM (active) | 1.53 µM (inactive)
COC(=O)/C(C#N)=C/c1cc(C(C)(C)C)c(O)c(C(C)(C)C)c1 | 3.15 µM (inactive) | 2.77 µM (inactive) | 2.77 µM (inactive) | 1.44 µM (inactive) | 2.33 µM (inactive) | 2.7 µM (inactive) | 3.95 µM (inactive) | 3.12 µM (inactive) | 2.66 µM (inactive) | 1.63 µM (inactive) | 3.21 µM (inactive) | 0.984 µM (active) | 1.45 µM (inactive) | 2.11 µM (inactive) | 3.27 µM (inactive) | 2.62 µM (inactive) | 1.48 µM (inactive) | 3.17 µM (inactive) | 0.904 µM (active) | 1.76 µM (inactive)
COc1ccc(-c2cc(-c3ccc(C)cc3)n(C3OC(COC(C)=O)C(OC(C)=O)C(OC(C)=O)C3OC(C)=O)c(=S)c2C#N)cc1 (stereo not given) | > 100 µM (inactive) | > 100 µM (inactive) | > 100 µM (inactive) | > 100 µM (inactive) | > 100 µM (inactive) | > 100 µM (inactive) | > 100 µM (inactive) | > 100 µM (inactive) | > 100 µM (inactive) | > 100 µM (inactive) | > 100 µM (inactive) | > 100 µM (inactive) | > 100 µM (inactive) | > 100 µM (inactive) | 57.5 µM (inactive) | > 100 µM (inactive) | > 100 µM (inactive) | 90.6 µM (inactive) | > 100 µM (inactive) | > 100 µM (inactive)
CN1C(=O)C(O)CC1c1cccc(F)c1 (stereo not given) | > 100 µM (inactive) | > 100 µM (inactive) | > 100 µM (inactive) | > 100 µM (inactive) | > 100 µM (inactive) | > 100 µM (inactive) | > 100 µM (inactive) | > 100 µM (inactive) | > 100 µM (inactive) | > 100 µM (inactive) | > 100 µM (inactive) | > 100 µM (inactive) | > 100 µM (inactive) | > 100 µM (inactive) | > 100 µM (inactive) | > 100 µM (inactive) | > 100 µM (inactive) | > 100 µM (inactive) | > 100 µM (inactive) | > 100 µM (inactive)
COc1ccccc1C1ON=C(c2ccc([N+](=O)[O-])cc2)N1C12CC3CC(CC(C3)C1)C2 (stereo not given) | > 100 µM (inactive) | > 100 µM (inactive) | > 100 µM (inactive) | > 100 µM (inactive) | > 100 µM (inactive) | > 100 µM (inactive) | > 100 µM (inactive) | 84.3 µM (inactive) | 47.9 µM (inactive) | > 100 µM (inactive) | 96.4 µM (inactive) | 73.8 µM (inactive) | > 100 µM (inactive) | 33 µM (inactive) | > 100 µM (inactive) | > 100 µM (inactive) | > 100 µM (inactive) | > 100 µM (inactive) | 29.9 µM (inactive) | > 100 µM (inactive)
Clc1ccc2c(NC3CCC(N4CCCCC4)CC3)ccnc2c1 (stereo not given) | 15.4 µM (inactive) | 32.6 µM (inactive) | 18.5 µM (inactive) | 11.7 µM (inactive) | 21.2 µM (inactive) | 12.2 µM (inactive) | 14.9 µM (inactive) | 5.16 µM (inactive) | 28.8 µM (inactive) | 16.9 µM (inactive) | 14.1 µM (inactive) | 20.9 µM (inactive) | 20.8 µM (inactive) | 32.5 µM (inactive) | 15.4 µM (inactive) | 18.6 µM (inactive) | 34.5 µM (inactive) | 32.7 µM (inactive) | 13.2 µM (inactive) | 17.9 µM (inactive)
COC(=O)c1c(C)nc(C)c(N=O)c1-c1ccccc1C(F)(F)F | 17.6 µM (inactive) | 32.9 µM (inactive) | 18.5 µM (inactive) | 31.9 µM (inactive) | 99.8 µM (inactive) | 79.6 µM (inactive) | 14.7 µM (inactive) | 20 µM (inactive) | 20.2 µM (inactive) | 18 µM (inactive) | 22.3 µM (inactive) | 4.97 µM (inactive) | 17.3 µM (inactive) | 34.2 µM (inactive) | 20.7 µM (inactive) | 14.9 µM (inactive) | 21.3 µM (inactive) | > 100 µM (inactive) | 13.7 µM (inactive) | 27.6 µM (inactive)
CCOC(=O)c1c(-c2ccccc2)[nH]c2ccc(Cl)cc2c1=O | 38.7 µM (inactive) | 27.6 µM (inactive) | 30.8 µM (inactive) | 47.5 µM (inactive) | 54.6 µM (inactive) | 37.9 µM (inactive) | 37.4 µM (inactive) | 49.9 µM (inactive) | 31.8 µM (inactive) | 31.3 µM (inactive) | 34.8 µM (inactive) | 28 µM (inactive) | 19.5 µM (inactive) | 41.1 µM (inactive) | 29.9 µM (inactive) | 69.7 µM (inactive) | 51.4 µM (inactive) | > 100 µM (inactive) | 33.3 µM (inactive) | 37.7 µM (inactive)
CC1(C)OCC(C2OC(N3O[C@H](CI)C[C@@H]3c3ccccc3)C3OC(C)(C)OC23)O1 (stereo not given in full) | > 100 µM (inactive) | > 100 µM (inactive) | 99.3 µM (inactive) | > 100 µM (inactive) | > 100 µM (inactive) | > 100 µM (inactive) | > 100 µM (inactive) | 82 µM (inactive) | > 100 µM (inactive) | > 100 µM (inactive) | > 100 µM (inactive) | > 100 µM (inactive) | > 100 µM (inactive) | 34 µM (inactive) | > 100 µM (inactive) | > 100 µM (inactive) | > 100 µM (inactive) | > 100 µM (inactive) | 48.5 µM (inactive) | > 100 µM (inactive)
